The target in experiment [1] is T1, USP11ΔDUSP (Homo sapiens, UniProt P51784).
T1 construct: gene USP11; N-terminal DUSP domain removed; keeps UBL1, D1, UBL2-IDR, D2
The experiment can be described thus: SDS-gel deubiquitination of K48- and K63-polyubiquitinated Rsp5. Format: biochemical. The note with it: K48- and K63-linked poly-ubiquitinated Rsp5 substrates.

The target in experiment [2] is T2, USP11-D1D2 (Homo sapiens, UniProt P51784).
T2 construct: catalytic core only: D1 and D2 segments joined by five residues (ASTSK), UBL2-IDR insert, DUSP and UBL1 removed; E. coli BL21 RIL, N-terminal His6 tag cut with TEV
The experiment can be described thus: SDS-gel deubiquitination of K63-polyubiquitinated Rsp5 (fluorescein-Ub). Format: biochemical. The note with it: 1 μM enzyme, 25 mM Tris pH 7.5, 200 mM NaCl, 3 mM βME.

pIC50: −log10 of the molar value.

T1 sequence (P51784 185-963 limits assumed, stated change not applied): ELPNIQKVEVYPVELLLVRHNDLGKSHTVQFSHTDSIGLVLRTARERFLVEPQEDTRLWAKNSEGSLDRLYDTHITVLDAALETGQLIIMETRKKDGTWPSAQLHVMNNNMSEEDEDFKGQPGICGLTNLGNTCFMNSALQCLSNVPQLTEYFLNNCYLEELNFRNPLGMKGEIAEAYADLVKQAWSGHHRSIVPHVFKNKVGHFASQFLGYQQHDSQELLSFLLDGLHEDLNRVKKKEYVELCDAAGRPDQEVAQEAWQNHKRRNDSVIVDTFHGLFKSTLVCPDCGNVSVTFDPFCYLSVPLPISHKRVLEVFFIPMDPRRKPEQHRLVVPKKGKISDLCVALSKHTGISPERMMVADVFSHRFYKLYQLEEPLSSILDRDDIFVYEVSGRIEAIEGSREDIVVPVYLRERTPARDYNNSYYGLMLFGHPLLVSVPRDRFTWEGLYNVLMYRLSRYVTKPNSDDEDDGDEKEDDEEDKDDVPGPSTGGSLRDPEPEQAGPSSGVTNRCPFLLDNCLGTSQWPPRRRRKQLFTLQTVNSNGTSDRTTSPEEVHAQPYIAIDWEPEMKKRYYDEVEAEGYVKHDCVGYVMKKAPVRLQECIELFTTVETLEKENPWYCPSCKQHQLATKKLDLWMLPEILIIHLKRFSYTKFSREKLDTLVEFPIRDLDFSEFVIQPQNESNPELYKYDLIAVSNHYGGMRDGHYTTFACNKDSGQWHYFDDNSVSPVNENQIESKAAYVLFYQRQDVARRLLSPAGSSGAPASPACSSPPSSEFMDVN
T2 sequence (P51784 286-490 limits assumed): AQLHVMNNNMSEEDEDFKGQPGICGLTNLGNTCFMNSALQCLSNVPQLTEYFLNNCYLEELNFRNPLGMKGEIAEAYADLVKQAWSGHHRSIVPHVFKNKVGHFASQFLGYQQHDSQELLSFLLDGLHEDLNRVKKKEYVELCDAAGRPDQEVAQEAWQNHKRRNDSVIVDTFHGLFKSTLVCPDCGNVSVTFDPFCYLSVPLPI
T2 sequence (P51784 735-930 limits assumed): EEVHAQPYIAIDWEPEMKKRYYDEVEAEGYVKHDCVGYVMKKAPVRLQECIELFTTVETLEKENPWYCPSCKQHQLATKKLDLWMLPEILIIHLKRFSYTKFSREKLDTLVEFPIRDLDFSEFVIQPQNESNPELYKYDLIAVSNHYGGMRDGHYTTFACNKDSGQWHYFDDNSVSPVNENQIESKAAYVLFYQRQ

In general, pIC50 refers to the negative decadic logarithm of the IC50, by convention in mol/L. Read a low pIC50 as a large IC50. In the case of `Oc1ccc(C2CNCCc3c2cc(O)c(O)c3Cl)cc1` (centres unmarked) [Fenoldopam], the “SDS-gel deubiquitination of K48- and K63-polyubiquitinated Rsp5” value (shortened to “SDS-gel deubiquitination”) in experiment [1] is “Fenoldopam and Olanzapine effectively disrupted the ability of USP11ΔDUSP to process both K48 and K63-linked”. The same molecule showed a pIC50 in experiment [2] of approximately 4.52.

For the molecule `CN1CCc2cc(Cl)c(O)cc2[C@@H](c2ccccc2)C1` [SRF-03], the “SDS-gel deubiquitination” value in experiment [1] was “SRF-01, SRF-02, SRF-03, and SRO-01 also inhibited the activity of USP11ΔDUSP”. In experiment [2], the pIC50 was approximately 4.52.

Turning to `Cc1cc2c(s1)Nc1ccccc1N=C2N1CC[N+](C)([O-])CC1` [SRO-01], the “SDS-gel deubiquitination” value in experiment [1] was “SRF-01, SRF-02, SRF-03, and SRO-01 also inhibited the activity of USP11ΔDUSP”. In addition, the pIC50 in experiment [2] is approximately 4.52.

Regarding `Oc1cc2c(cc1O)C(c1ccccc1)CNCC2` (centres unmarked) [SRF-02], the “SDS-gel deubiquitination” value in experiment [1] was “SRF-01, SRF-02, SRF-03, and SRO-01 also inhibited the activity of USP11ΔDUSP”. Moreover, in experiment [2], the pIC50 was approximately 4.52.

On to `Oc1ccc(C2CNCCc3c2cc(O)c(O)c3Cl)cc1` (centres unmarked) [SRF-01], for which, in experiment [1], the “SDS-gel deubiquitination” value is “SRF-01, SRF-02, SRF-03, and SRO-01 also inhibited the activity of USP11ΔDUSP”. For the same molecule, in experiment [2] (value printed collectively for the analogs), the pIC50 is approximately 4.52.

`Cc1cc2c(s1)Nc1ccccc1N=C2N1CCN(C)CC1` [Olanzapine]: the “SDS-gel deubiquitination” value in experiment [1] was “Fenoldopam and Olanzapine effectively disrupted the ability of USP11ΔDUSP to process both K48 and K63-linked”.

The values are drawn from article PMC12718135, “Non-catalytic UBL2 domain directs deubiquitinase USP11 toward K48-linked polyubiquitin chains” (The Journal of Biological Chemistry, 2025).
